# Laboratory results: PubChem BioAssay AID1845211 (Molecular Pharmacology Branch, DTP, NCI, 2023)
# Several values for one entry are separate records, joined by “and”; a condition that tells them apart may be missing. Equal entries are not always repeated.
# Test system: NCI-H322M multicellular tumor spheroids, viability (% test/control)
# Assay: Anticancer human tumor NCI-H322M cell line growth inhibition;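 on viability, T/C: spheroids exposed to compound for seven days before readout; 100% = DMSO vehicle control wells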
# Conditions: for viability, T/C: stronger effect = lower value
# In short: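 Complex tumor spheroids combined malignant cells with endothelial cells and mesenchymal stem cells. DNA-damaging drugs and DNA repair inhibitors were tested alone and in combination, at half-log dilutions down from clinical Cmax (top 10 microM if Cmax unknown), 0.25% DMSO final.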
# [1] = curve of first compound, second compound 30 pM
# [2] = curve of first compound, second compound 94.9 pM
# [3] = curve of first compound, second compound 0.0003 µM
# [4] = curve of first compound, second compound 0.000949 µM
# [5] = curve of first compound, second compound 0.003 µM
# [6] = second compound 30 pM, first compound 0.0949 µM
# [7] = second compound 30 pM, first compound 0.3 µM
# [8] = second compound 30 pM, first compound 0.949 µM
# [9] = second compound 30 pM, first compound 3 µM
# [10] = second compound 94.9 pM, first compound 0.0949 µM
# [11] = second compound 94.9 pM, first compound 0.3 µM
# [12] = second compound 94.9 pM, first compound 0.949 µM
# [13] = second compound 94.9 pM, first compound 3 µM
# [14] = second compound 0.0003 µM, first compound 0.0949 µM
# [15] = second compound 0.0003 µM, first compound 0.3 µM
# [16] = second compound 0.0003 µM, first compound 0.949 µM
# [17] = second compound 0.0003 µM, first compound 3 µM
# [18] = second compound 0.000949 µM, first compound 0.0949 µM
# [19] = second compound 0.000949 µM, first compound 0.3 µM
# [20] = second compound 0.000949 µM, first compound 0.949 µM
# [21] = second compound 0.000949 µM, first compound 3 µM
# [22] = second compound 0.003 µM, first compound 0.0949 µM
# [23] = second compound 0.003 µM, first compound 0.3 µM
# [24] = second compound 0.003 µM, first compound 0.949 µM
# [25] = second compound 0.003 µM, first compound 3 µM
compound,measurement,setting,value
O=C(c1cc(Cc2n[nH]c(=O)c3ccccc23)ccc1F)N1CCN(C(=O)C2CC2)CC1 + COc1cc2c(cc1O)CCNC21CSC2c3c(OC(C)=O)c(C)c4c(c3C(COC1=O)N1C(O)C3Cc5cc(C)c(OC)c(O)c5C(C21)N3C)OCO4,IC50,[1],> 30000 nM
same,IC50,[2],> 30000 nM
same,IC50,[3],> 30000 nM
same,IC50,[4],20800 nM
same,IC50,[5],< 94.9 nM
same,"viability, T/C",[6],81.3%
same,"viability, T/C",[7],84.3%
same,"viability, T/C",[8],90.6%
same,"viability, T/C",[9],79.8%
same,"viability, T/C","second compound 30 pM, first compound 9.49 µM",85.8%
same,"viability, T/C","second compound 30 pM, first compound 30 µM",110%
same,"viability, T/C",[10],90.7%
same,"viability, T/C",[11],84.9%
same,"viability, T/C",[12],88.5%
same,"viability, T/C",[13],87.5%
same,"viability, T/C","second compound 94.9 pM, first compound 9.49 µM",79.4%
same,"viability, T/C","second compound 94.9 pM, first compound 30 µM",98.5%
same,"viability, T/C",[14],99.6%
same,"viability, T/C",[15],84.7%
same,"viability, T/C",[16],79.9%
same,"viability, T/C",[17],83.3%
same,"viability, T/C","second compound 0.0003 µM, first compound 9.49 µM",79.8%
same,"viability, T/C","second compound 0.0003 µM, first compound 30 µM",95.9%
same,"viability, T/C",[18],83.4%
same,"viability, T/C",[19],77.7%
same,"viability, T/C",[20],69.5%
same,"viability, T/C",[21],72.7%
same,"viability, T/C","second compound 0.000949 µM, first compound 9.49 µM",67.6%
same,"viability, T/C","second compound 0.000949 µM, first compound 30 µM",42.2%
same,"viability, T/C",[22],11.3%
same,"viability, T/C",[23],14.1%
same,"viability, T/C",[24],8.06%
same,"viability, T/C",[25],7.88%
same,"viability, T/C","second compound 0.003 µM, first compound 9.49 µM",4.62%
same,"viability, T/C","second compound 0.003 µM, first compound 30 µM",1.81%
Cn1ncnc1[C@H]1c2n[nH]c(=O)c3cc(F)cc(c23)N[C@@H]1c1ccc(F)cc1 + COc1cc2c(cc1O)CCNC21CSC2c3c(OC(C)=O)c(C)c4c(c3C(COC1=O)N1C(O)C3Cc5cc(C)c(OC)c(O)c5C(C21)N3C)OCO4,IC50,[1],> 3000 nM
same,IC50,[2],> 3000 nM
same,IC50,[3],> 3000 nM
same,IC50,[4],1520 nM
same,IC50,[5],< 9.49 nM
same,"viability, T/C","second compound 30 pM, first compound 0.00949 µM",78.7%
same,"viability, T/C","second compound 30 pM, first compound 0.03 µM",89.2%
same,"viability, T/C",[6],68.8%
same,"viability, T/C",[7],82%
same,"viability, T/C",[8],75.2%
same,"viability, T/C",[9],65.6%
same,"viability, T/C","second compound 94.9 pM, first compound 0.00949 µM",71.4%
same,"viability, T/C","second compound 94.9 pM, first compound 0.03 µM",78.2%
same,"viability, T/C",[10],78.8%
same,"viability, T/C",[11],70.5%
same,"viability, T/C",[12],68.2%
same,"viability, T/C",[13],59.5%
same,"viability, T/C","second compound 0.0003 µM, first compound 0.00949 µM",88.8%
same,"viability, T/C","second compound 0.0003 µM, first compound 0.03 µM",85%
same,"viability, T/C",[14],82.9%
same,"viability, T/C",[15],77.8%
same,"viability, T/C",[16],67.3%
same,"viability, T/C",[17],62.9%
same,"viability, T/C","second compound 0.000949 µM, first compound 0.00949 µM",73.6%
same,"viability, T/C","second compound 0.000949 µM, first compound 0.03 µM",68.6%
same,"viability, T/C",[18],72.5%
same,"viability, T/C",[19],64.4%
same,"viability, T/C",[20],56.9%
same,"viability, T/C",[21],40.3%
same,"viability, T/C","second compound 0.003 µM, first compound 0.00949 µM",6.87%
same,"viability, T/C","second compound 0.003 µM, first compound 0.03 µM",9.48%
same,"viability, T/C",[22],6.81%
same,"viability, T/C",[23],3.83%
same,"viability, T/C",[24],10.6%
same,"viability, T/C",[25],1.7%
Cc1cc(C)c(CNC(=O)c2cc(-c3ccc(CN4CCOCC4)cc3)cc3c2cnn3C2CCCC2)c(=O)[nH]1,"viability, T/C",compound 0.0316 µM,93.2% and 96.5% and 81.3%
same,"viability, T/C",compound 0.1 µM,101% and 84.8% and 89%
same,"viability, T/C",compound 0.316 µM,90.7% and 96.1% and 79.9%
same,"viability, T/C",compound 1 µM,101% and 88.8% and 98.1%
same,"viability, T/C",compound 3.16 µM,96.1% and 117% and 84.2%
same,"viability, T/C",compound 10 µM,117% and 114% and 102%
same,IC50,curve of compound,> 10000 nM
Cc1sc2c(c1C)C(c1ccc(Cl)cc1)=NC(CC(=O)Nc1ccc(O)cc1)c1nnc(C)n1-2 (stereo unspecified),"viability, T/C",compound 0.00949 µM,106% and 134% and 101%
same,"viability, T/C",compound 0.03 µM,114% and 110% and 109%
same,"viability, T/C",compound 0.0949 µM,122% and 129% and 130%
same,"viability, T/C",compound 0.3 µM,112% and 114% and 116%
same,"viability, T/C",compound 0.949 µM,86.2% and 95.3% and 76%
same,"viability, T/C",compound 3 µM,75.4% and 80.9% and 64%
same,IC50,curve of compound,> 3000 nM
CC1COCCN1c1cc(-c2ccnn2C)c2ccnc(-c3ccn[nH]3)c2n1 (stereo unspecified),"viability, T/C",compound 0.0316 µM,53.9% and 67.8% and 58.9%
same,"viability, T/C",compound 0.1 µM,40.6% and 54% and 49.9%
same,"viability, T/C",compound 0.316 µM,29.4% and 41.8% and 36%
same,"viability, T/C",compound 1 µM,29.7% and 35.6% and 33.4%
same,"viability, T/C",compound 3.16 µM,29.8% and 38.9% and 33.5%
same,"viability, T/C",compound 10 µM,32.7% and 44.9% and 37.6%
same,IC50,curve of compound,43.1 nM and 144 nM and 71.4 nM
